Activity calls are given as the source filed them. The calls are words filed in the database; no cut-off is given here.
Key:
Format in all cases: functional
Rattus norvegicus [1] = species: Rattus norvegicus; assay: Antiproliferative activity against serum deprived rat Glomerular mesangial cells assessed as reduction in 25 mM glucose-induced cell proliferation at 0.5 uM after 48 hrs by MTT assay
[2] = Antioxidant activity in serum deprived rat Glomerular mesangial cells assessed as EOH level by measuring EOH/DHE level in presence of 25 mM glucose at 0.5 uM after 48 hrs by DHE based HPLC analysis (reference value: 654.98 +/- 32.31 nmol/micromol)
[3] = Nephroprotective activity in serum deprived rat Glomerular mesangial cells assessed as fibronectin protein expression in presence of 25 mM glucose at 2.5 uM after 48 hrs by Western blot analysis (reference value: 270.11 +/- 19.17%)
[4] = Nephroprotective activity in serum deprived rat Glomerular mesangial cells assessed as fibronectin protein expression in presence of 25 mM glucose at 1 uM after 48 hrs by Western blot analysis (reference value: 270.11 +/- 19.17%)
Rattus norvegicus [5] = species: Rattus norvegicus; assay: Antioxidant activity in serum deprived rat Glomerular mesangial cells assessed as reduction in NADPH oxidase dependent super oxide generation in presence of 25 mM glucose at 0.5 uM after 48 hrs by Lucigenin-enhanced chemiluminescence method
[6] = Nephroprotective activity in serum deprived rat Glomerular mesangial cells assessed as fibronectin protein expression in presence of 25 mM glucose at 5 uM after 48 hrs by Western blot analysis (reference value: 270.11 +/- 19.17%)
[7] = Antioxidant activity in serum deprived rat Glomerular mesangial cells assessed as EOH level by measuring EOH/DHE level in presence of 25 mM glucose at 5 uM after 48 hrs by DHE based HPLC analysis (reference value: 654.98 +/- 32.31 nmol/micromol)
Rattus norvegicus [8] = species: Rattus norvegicus; assay: Antiproliferative activity against serum deprived rat Glomerular mesangial cells assessed as reduction in 25 mM glucose-induced cell proliferation at 1 uM after 48 hrs by MTT assay
[9] = Antioxidant activity in serum deprived rat Glomerular mesangial cells assessed as EOH level by measuring EOH/DHE level in presence of 25 mM glucose at 2.5 uM after 48 hrs by DHE based HPLC analysis (reference value: 654.98 +/- 32.31 nmol/micromol)
[10] = Antioxidant activity in serum deprived rat Glomerular mesangial cells assessed as EOH level by measuring EOH/DHE level in presence of 25 mM glucose at 1 uM after 48 hrs by DHE based HPLC analysis (reference value: 654.98 +/- 32.31 nmol/micromol)
[11] = Nephroprotective activity in serum deprived rat Glomerular mesangial cells assessed as fibronectin protein expression in presence of 25 mM glucose at 0.5 uM after 48 hrs by Western blot analysis (reference value: 270.11 +/- 19.17%)
Rattus norvegicus [12] = species: Rattus norvegicus; assay: Antioxidant activity in serum deprived rat Glomerular mesangial cells assessed as reduction in NADPH oxidase dependent super oxide generation in presence of 25 mM glucose at 1 uM after 48 hrs by Lucigenin-enhanced chemiluminescence method

| Compound | Activity (Rattus norvegicus [1]) | Activity [2] [nmol/umol] | Activity [3] [%] | Activity [4] [%] | Activity (Rattus norvegicus [5]) | Activity [6] [%] | Activity [7] [nmol/umol] | Activity (Rattus norvegicus [8]) | Activity [9] [nmol/umol] | Activity [10] [nmol/umol] | Activity [11] [%] | Activity (Rattus norvegicus [12]) |
| --- | --- | --- | --- | --- | --- | --- | --- | --- | --- | --- | --- | --- |
| Cc1cn(CCC(=O)NNc2nc(NNC(=O)CCn3ccc(=O)[nH]c3=O)nc(NNC(=O)CCn3ccc(=O)[nH]c3=O)n2)c(=O)[nH]c1=O | Active | 454.37 | 143.41 | 145.64 | Active | 151.18 | 217.62 | Active | 231.15 | 306.28 | 178.33 | Active |
| NNC(=O)CCn1ccc(O)nc1=O |  | 666.94 | 241.91 | 265.72 |  | 227.83 | 618.26 |  | 654.48 | 671.47 | 268.71 |  |
| Cc1cn(CCC(=O)NNc2nc(Cl)nc(NNC(=O)CCn3cc(C)c(=O)[nH]c3=O)n2)c(=O)[nH]c1=O |  | 651.54 | 189.91 | 200.79 |  | 170.26 | 413.96 |  | 512.62 | 671.14 | 231.19 |  |
| Cc1cn(CCC(=O)NNc2nc(NNC(=O)CCn3cc(C)c(=O)[nH]c3=O)nc(NNC(=O)CCn3cc(C)c(=O)[nH]c3=O)n2)c(=O)[nH]c1=O | Active | 404.34 | 108.35 | 141.91 | Active | 102.99 | 224.71 | Active | 200.36 | 305.77 | 182.76 | Active |
| O=C(CCn1ccc(=O)[nH]c1=O)NNc1nc(Cl)nc(NNC(=O)CCn2ccc(=O)[nH]c2=O)n1 |  | 660.36 | 219.47 | 280.24 |  | 179.47 | 672.32 |  | 661.09 | 648.96 | 267.45 |  |
| Cc1cn(CCC(=O)NN)c(=O)nc1O |  | 701.09 | 251.59 | 272.26 |  | 239.46 | 710.14 |  | 683.28 | 658.92 | 289.17 |  |
| O=C(CCn1ccc(=O)[nH]c1=O)NNc1nc(NNC(=O)CCn2ccc(=O)[nH]c2=O)nc(NNC(=O)CCn2ccc(=O)[nH]c2=O)n1 | Active | 359.07 | 142.45 | 167.88 | Active | 121.19 | 210.93 | Active | 198.48 | 274.37 | 191.33 | Active |
| Cc1cn(CCC(=O)NNc2nc(NNC(=O)CCn3ccc(=O)[nH]c3=O)nc(NNC(=O)CCn3cc(C)c(=O)[nH]c3=O)n2)c(=O)[nH]c1=O | Active | 323.17 | 127.09 | 135.87 | Active | 121.34 | 240.46 | Active | 249.97 | 257.69 | 114.54 | Active |
